From patent US20140170096A1, “SUNSCREEN COMPOSITIONS” (priority 2011, published 2014)
Entries after “also recorded” stand apart in the source; their conditions may differ. Read-outs that look alike come from different tables or passages of the source.

Columns and labels:
[1] = system: viruses in water surrounding coral nubbins; experiment: Viral abundance and viral enrichment in seawater surrounding coral nubbins (microcosm incubation); conditions: for Total viral abundances (TVN): seawater surrounding Acropora sp. nubbins, compound concentration per Table 2; for Viral enrichment factor (VEF): ratio of viral abundances, end vs start of incubation
Method: (§1) In situ tests were performed on nubbins (i.e., small branches of about 3-6 cm) of the stony coral Acropora sp. The nubbins were incubated in microcosms in presence of known concentrations of various ingredients potentially to be included in the composition of the eco-compatible sunscreen cream. In particular, coral nubbins (including more than 3000 polyps each) were collected by scuba divers from the same colony, located at a depth of about 3 m on the edge of the reef slope. Sampling of nubbins was performed by means of forceps. The nubbins were washed with seawater filtered onto 0.02-μm filters to eliminate viruses and prokaryotes. Each microcosm was prepared with a replicate set of nubbins (n=3) immersed in sterile polyethylene bags (Whirl-pack, Nasco, Fort Atkinson, Wis., USA) filled with 2 L filtered seawater. A total of 27 microcosms were prepared, in order to test 20 ingredients with the respective positive and negative controls. The microcosms were incubated at in situ temperature and light conditions for 72 hours.
(§2) After subsampling, sea water was transferred into sterile test tubes without use of fixatives and stored at −20° C. until laboratory analysis for quantification of viral and prokaryotic abundance. Once in laboratory, the water samples were immediately processed. Briefly, 200 uL sea water were diluted 1:10 with prefiltered MilliQ water, through 0.02-μm pore filters (Anodisc filter; 25-mm diameter, Al2O3; Whatman) and stained with 20 μL SYBR Green (stock solution diluted 1:20; Invitrogen, Carlsbad, Calif., USA). […] Slides were stored at −20° C. until microscopy analysis. Virus and prokaryote counts were obtained by epifluorescence microscopy (magnification, ×1000; Zeiss Axioplan) by examining at least 10 optical fields, that is, at least 200 cells or viruses per replicate. Viral (and prokaryotic) enrichment was calculated as ratio between virus (and prokaryote) abundances and virus (and prokaryote) abundance at the […] of the experiment.

[2] = system: prokaryotes in water surrounding coral nubbins; experiment: Prokaryotic (bacterial) abundance and enrichment in seawater surrounding coral nubbins (microcosm incubation); conditions: seawater surrounding Acropora sp. nubbins
Method: as §1, §2

[3] = system: symbiotic zooxanthellae released from coral nubbins; experiment: Zooxanthellae counts: zooxanthellae released in water surrounding coral nubbins; type: in vivo, Acropora sp.; conditions: for Healthy zooxanthellae released / Pale zooxanthellae released / Total zooxanthellae released / Transparent (i.e., dead) zooxanthellae released: end of incubation (72 h); for Percentage of healthy zooxanthellae released / Percentage of pale zooxanthellae released / Percentage of transparent zooxanthellae released: of total released, end of incubation
Method: as §1
Subsamples (50 mL) of seawater surrounding coral nubbins were collected at the start of the experiment (T0) and after 6, 12, 24, 36, 48 and 72 hours of incubation. The subsamples were fixed in 3% glutaraldehyde and then about 6.0 ml of each replicate was filtered through 2.0-μm polycarbonate filters. Filters were mounted on glass slides and zooxanthellae counted under epifluorescence microscopy (Zeiss Axioplan, Carl Zeiss Inc., Jena, Germany; ×400 and ×1000) using standard and UV light.

[4] = system: stony coral Acropora sp. nubbins; experiment: Quantification of coral bleaching by colorimetric (CMYK) analysis of digital photographs; type: in vivo; conditions: Acropora sp. (stony coral), in vivo, 72 h
Method: as §1
Photographs were taken under identical illumination with a Canon PowerShot A620 digital camera (Canon Inc., Tokyo, Japan) with a scale meter on the background. The photos were successively analyzed with a photo-editing software (Adobe Photoshop CS2) for color composition [cyan, magenta, yellow, black (CMYK)]. Levels of bleaching were measured as the difference between the corals' color at the beginning of the experiment and after treatments. Variations in the percentage of the different color components (CMYK) were analyzed with one-way analysis of variance (ANOVA). To rank the bleaching effect due to the compounds tested, a Bray-Curtis similarity matrix was prepared and a multidimensional scaling analysis of the shifts in CMYK color composition of treated corals was performed using Primer 5.0 software (Primer-E Ltd., Plymouth, UK). Bleaching rates were measured as the dissimilarity percentage in CMYK color composition between treated and control corals using the SIMPER tool of Primer 5.0 software (Primer-E Ltd).

coral reefs = experiment: Summary of eco-compatibility of tested products with coral reefs; design: species or system Acropora sp.
Method: In order to select the most eco-compatible products for each group of compounds (i.e., base cream, fragrance, antioxidants and filters) the following criteria were selected:
1. coral bleaching level; 2. degree of release of symbiotic zooxanthellae; 3. zooxanthellae health conditions; 4. viral enrichment in the incubation medium with respect to controls.

| SMILES | Total viral abundances (TVN) ([1]; incubation 0 (start)) | Total viral abundances (TVN) ([1]; incubation 12 h) | Viral enrichment factor (VEF) [1] | Bacterial abundance (total bacterial number, TBN) ([2]; incubation 0 (start)) | Bacterial abundance (total bacterial number, TBN) ([2]; incubation 12 h) | Healthy zooxanthellae released [3] | Pale zooxanthellae released [3] | Total zooxanthellae released [3] | Transparent (i.e., dead) zooxanthellae released [3] | Percentage of healthy zooxanthellae released [3] | Percentage of pale zooxanthellae released [3] | Percentage of transparent zooxanthellae released [3] | Number of color channels (of 4, CMYK) significantly altered [4] | Eco-compatibility (coral reefs) | Decrease of VPR ([1]; after incubations) | Eco-compatibility (coral reefs; criteria: bleaching level, zooxanthellae release, zooxanthellae health, viral enrichment, listed as MBBT) |
| --- | --- | --- | --- | --- | --- | --- | --- | --- | --- | --- | --- | --- | --- | --- | --- | --- |
| CC1=C(/C=C/C(C)=C/C=C/C(C)=C/CO)C(C)(C)CCC1 [System D20, Retinol] | 2.47E+05 viruses ml^−1 | 1.97E+06 viruses ml^−1 | 8.09 | 3.62E+04 | 1.71E+06 | 6.04E+02 cells ml^−1 | 7.18E+03 cells ml^−1 | 1.46E+04 cells ml^−1 | 6.84E+03 cells ml^−1 | 4% | 49% | 47% | 1 | Compatible | – | – |
| CCCCCCCCCCCCCCCC(=O)OC/C=C(C)/C=C/C=C(C)/C=C/C1=C(C)CCCC1(C)C [System D19, retinyl palmitate] | 1.03E+05 viruses ml^−1 | 1.98E+06 viruses ml^−1 | 18.92 | 3.62E+04 | 1.54E+06 | 1.07E+03 cells ml^−1 | 5.30E+03 cells ml^−1 | 1.23E+04 cells ml^−1 | 5.97E+03 cells ml^−1 | 9% | 43% | 48% | 1 | Compatible | – | – |
| CC(C)(C)CC(C)(C)c1cc(Cc2cc(C(C)(C)CC(C)(C)C)cc(-n3nc4ccccc4n3)c2O)c(O)c(-n2nc3ccccc3n2)c1 [System D22] | 5.06E+05 viruses ml^−1 | 2.99E+06 viruses ml^−1 | 6.16 | 5.47E+04 | 9.18E+05 | 4.70E+02 cells ml^−1 | 6.91E+03 cells ml^−1 | 1.80E+04 cells ml^−1 | 1.06E+04 cells ml^−1 | 3% | 38% | 59% | – | – | up to 10 times | greater eco-compatibility; also recorded: Highly compatible |
